Test results as given in paper PMC4412663, “Pathway for Biodegrading Microcystin-YR by Sphingopyxis sp. USTB-05” (PLoS ONE, 2015).

Experiments:
[1] = test system: crude enzymes (CEs) of Sphingopyxis sp. USTB-05; conditions: cited from earlier work
Sphingopyxis sp. USTB-05 = conditions: cited from earlier work
[2] = test system: crude enzymes (CEs) of Sphingopyxis sp. USTB-05; test: Enzymatic biodegradation by crude enzymes (CEs) of Sphingopyxis sp. USTB-05; type: in vitro ADME
Procedure: At logarithmic growth phase of the third day, the culture solution of Sphingopyxis sp. USTB-05 was centrifuged at 8,000 r/min for 20 min, and then the supernatant was decanted. The pelleted cells were washed three times with 50 mmol/L phosphate buffer solution (PBS, pH 7.0). The harvested cells were resuspended in 20 mL PBS and disrupted using an ultrasonic disruptor with an output power of 600 W for 15 min at 4°C. The cell debris was removed by centrifugation at 12,000 r/min for 30 min. The supernatant was collected, and after handling by 3500 MWCO dialysis bag small molecules such as Tyr was removed, it was used as CEs in the enzymatic biodegradation of MC-YR and its protein profile was determined using sodium dodecyl sulfate-polyacrylamide gel electrophoresis (SDS-PAGE) on 12% polyacrylamide gel. […].
The total biodegradation reaction volume was 5 mL containing 14.8 mg/L MC-YR and 103.6 mg/L protein in PBS in a 10 mL centrifuge tube. The reaction was at 30°C with the shake rate of 200 r/min. […]
MC-YR and its enzymatic biodegradation products were firstly measured using a HPLC system (Shimadzu LC-10ATVP, Shimadzu Co., Ltd., Japan) with a ultraviolet (UV) Diode Array Detector at 238 nm and 230 nm using a Agilent TC-C18 column (4.6 mm×250 mm) (Agilent, 1200 series, USA). […]

## microcystin-LR [MC-LR]
[1]
  time to total removal by CEs of USTB-05: ≤ 10 h
Sphingopyxis sp. USTB-05
  time to total removal by USTB-05: ≤ 20 h

## microcystin-RR [MC-RR]
Sphingopyxis sp. USTB-05
  time to complete biodegradation by Sphingopyxis sp. USTB-05: ≤ 36 h

## microcystin-YR [MC-YR]
[2]
  average biodegradation rate of MC-YR: 1.5 mg/L per hour
[2]; pH 7
  time to complete removal of MC-YR by CEs: ≤ 10 h
